This assay deals with T1, isomerase (Mus musculus, UniProt Q91ZQ5).
T1 construct: from tissue; host or cells: eyes of living CD-1 (and Balb/c) mice, endogenous protein
T1 sequence (Q91ZQ5 1-533): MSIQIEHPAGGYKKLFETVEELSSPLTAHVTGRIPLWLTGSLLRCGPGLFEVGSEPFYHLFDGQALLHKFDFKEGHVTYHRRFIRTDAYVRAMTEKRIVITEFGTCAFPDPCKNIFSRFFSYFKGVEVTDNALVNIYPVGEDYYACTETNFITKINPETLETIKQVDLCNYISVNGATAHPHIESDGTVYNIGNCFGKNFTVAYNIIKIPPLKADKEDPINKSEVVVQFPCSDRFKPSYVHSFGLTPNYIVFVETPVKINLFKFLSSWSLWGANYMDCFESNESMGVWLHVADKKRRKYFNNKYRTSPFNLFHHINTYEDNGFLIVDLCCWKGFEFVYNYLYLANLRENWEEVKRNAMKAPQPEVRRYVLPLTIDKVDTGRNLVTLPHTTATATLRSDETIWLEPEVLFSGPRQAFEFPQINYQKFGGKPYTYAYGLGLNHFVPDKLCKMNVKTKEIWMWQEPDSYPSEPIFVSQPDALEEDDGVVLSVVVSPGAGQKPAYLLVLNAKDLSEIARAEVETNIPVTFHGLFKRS
Nature of the assay: In vivo murine isomerase assay (recovery of 11-cis-retinal after photobleaching). To be noted: po, mice, oral gavage. The method, then:
The capability of compounds described herein to inhibit isomerase was determined by an in vivo murine isomerase assay. Brief exposure of the eye to intense light (“photobleaching” of the visual pigment or simply “bleaching”) is known to photo-isomerize almost all 11-cis-retinal in the retina. The recovery of 11-cis-retinal after bleaching was used to estimate the activity of isomerase in vivo. Delayed recovery, as represented by lower 11-cis-retinal oxime levels, indicates inhibition of isomerization reaction. Procedures were performed essentially as described by Golczak et al., Proc. Natl. Acad. Sci. USA 102:8162-67 (2005). See also Deigner et al., Science, 244: 968-71 (1989); Gollapalli et al., Biochim Biophys Acta. 1651: 93-101 (2003); Parish, et al., Proc. Natl. Acad. Sci. USA, 14609-13 (1998); Radu, et al., Proc Natl Acad Sci USA 101: 5928-33 (2004).
Six-week old dark-adapted CD-1 (albino) male mice were orally gavaged with compound (0.03-3 mg/kg) dissolved in 100 μl corn oil containing 10% ethanol (five animals per group). After 2-24 hours in the dark, the mice were exposed to photobleaching of 5,000 lux of white light for 10 minutes. The mice were allowed to recover 2 hours in the dark. The animals were then sacrificed by carbon dioxide inhalation. Retinoids were extracted from the eye and the regeneration of 11-cis-retinal was assessed at various time intervals.
All steps were performed in darkness with minimal redlight illumination (low light darkroom lights and red-filtered flashlights for spot illumination as needed) (see, e.g., Maeda et al., J. Neurochem 85:944-956, 2003; Van Hooser et al., J Biol Chem 277:19173-82, 2002). After the mice were sacrificed, the eyes were immediately removed and placed in liquid nitrogen for storage.
The eyes were placed in 500 μL of bis-tris propane buffer (10 mM, pH ˜7.3) and 20 μL of 0.8M hydroxile amine (pH˜7.3). The eyes were cut up into small pieces with small iris scissors and then thoroughly homogenized at 30000 rpm with a mechanical homogenizer (Polytron PT 1300 D) in the tube until no visible tissue remained. 500 μL of methanol and 500 μL of heptane were added to each tube. The tubes were attached to a vortexer so that the contents were mixed thoroughly for 15 minutes in room temperature. The organic phase was separated from the aqueous phase by centrifugation for 10 min at 13K rpm, 4° C. 240 μL of the solution from the top layer (organic phase) was removed and transferred to clean 300 μl glass inserts in HPLC vials using glass pipette and the vials were crimped shut tightly.
The samples were analyzed on an Agilent 1100 HPLC system with normal phase column: SILICA (Beckman Coutlier, dp 5 μm, […]). […] Loading volume for each sample was 100 μl; detection wavelength is 360 nm. The area under the curve for 11-cis retinal oxime was calculated by Agilent Chemstation software and was recorded manually. Data processing was performed using Prizm software.
Positive control mice (no compound administered) were sacrificed fully dark-adapted and the eye retinoids analyzed. Light (bleached) control mice (no compound administered) were sacrificed and retinoids isolated and analyzed immediately after light treatment.
A time course study was performed to determine the isomerase inhibitory activity of the test compound. Male Balb/c mice (4/group) receive test compound orally by gavage. The animals were then “photo-bleached” (5000 Lux white light for 10 minutes) at 2, 4, 8, 16 and 24 hours after dosing, and returned to darkness to allow recovery of the 11-cis-retinal content of the eyes. Mice were sacrificed 2 hours after bleaching, eyes were enucleated, and retinoid content was analyzed by HPLC.
Recovery control mice (vehicle-only treated) were light-treated and left to recover for 2 hours in the dark before sacrifice and analysis. Light control mice (vehicle only treated) were sacrificed for analysis immediately after photo-bleaching.

In general, inhibition refers to the share of the control response that was lost under treatment. Low readings indicate a weak effect, high ones a strong effect.

In the case of `NCCC(O)c1ccc(OCC2CCCCC2)s1` (centres unmarked) [Example 1, 3-Amino-1-(5-(cyclohexylmethoxy)thiophen-2-yl)propan-1-ol], the inhibition at 1 mg/kg runs as follows: (Time 2 hour) 0%; (Time 4 hour) 0%.

For `NCCC(O)c1cc(C#CC2(O)CCCCC2)cs1` (centres unmarked) [Example 9, 1-((5-(3-Amino-1-hydroxypropyl)thiophen-3-yl)ethynyl)cyclohexanol], 1 mg/kg produced 8.6 ± 4.2% inhibition (Time 2 hour).

The molecule `NCC[C@@H](O)c1ccc(OCC2CCCCC2)s1` [Example 5, (R)-3-Amino-1-(5-(cyclohexylmethoxy)thiophen-2-yl)propan-1-ol] returned an inhibition at 1 mg/kg (Time 2 hour) of 0%.

The molecule `NCCC(O)c1cccc(CCC2CCCCC2)n1` (centres unmarked) [Example 4, 3-Amino-1-(6-(2-cyclohexylethyl)pyridin-2-yl)propan-1-ol] had an inhibition at 1 mg/kg (Time 2 hour) of 29.3 ± 4.3%.

For `NCCC(O)c1cc(OCC2CCCCC2)ccn1` (centres unmarked) [Example 12, 3-Amino-1-(4-(cyclohexylmethoxy)pyridin-2-yl)propan-1-ol], at 1 mg/kg the inhibition (Time 2 hour) was 0%.

In the case of `CCCC(CCC)COc1cccc([C@H](O)CCN)n1` [Example 19, (R)-3-Amino-1-(6-((2-propylpentyl)oxy)pyridin-2-yl)propan-1-ol], the inhibition at 1 mg/kg by setting is: (Time 4 hour) 98.2 ± 2.3%; (Time 8 hour) 90.7 ± 3.3%.

In turn, `NCCC(O)c1cccc(/C=C/C2CCCCC2)n1` (centres unmarked) [Example 3, (E)-3-Amino-1-(6-(2-cyclohexylvinyl)pyridin-2-yl)propan-1-ol] registered an inhibition at 1 mg/kg (Time 2 hour) of 0%.

Take `NCC[C@@H](O)c1cccc(OCC2CCCCC2)n1` [Example 6, (R)-3-Amino-1-(6-(cyclohexylmethoxy)pyridin-2-yl)propan-1-ol]: the inhibition at 1 mg/kg amounted to 68.9 ± 6.5% (Time 2 hour) and 37.7 ± 14.9% (Time 4 hour). This molecule had an inhibition at 3 mg/kg (Time 2 hour) of 93.2 ± 0.9%; an inhibition at 3 mg/kg (Time 4 hour) of 85.5 ± 2.9%; an inhibition at 3 mg/kg (Time 6 hour) of 62.3 ± 3.8%; an inhibition at 3 mg/kg (Time 8 hour) of 30.8 ± 9.9%; an inhibition at 3 mg/kg (Time 16 hour) of 0%; an inhibition at 3 mg/kg (Time 24 hour) of 0%.

The record behind these values is US9447078B2, “Substituted heterocyclic compounds for disease treatment” (Acucela Inc., priority 2012, dated 2016).
